Key:
[1] = test system: human metaphase chromosomes; assay: Sister chromatid separation of human metaphase chromosomes in Xenopus extracts; settings: for Separation of sister chromatids: high concentrations of Δ90 (400 nm), human chromosomes in Xenopus extract
Description: CSF extracts were prepared as described (Murray (1991) Methods Cell Biol. 36:581). For sister chromatid separation assays two sources of chromosomes were used, Xenopus sperm nuclei and isolated human metaphase chromosomes. Xenopus sperm nuclei were prepared as described by Philpott et al. ((1991) Cell 65:569). When they were used, the protocol developed by Murray and colleagues was followed (Holloway et al. (1993) Cell 73:1393) with the exception that Δ90 was usually added later, about 50 minutes after CSF. Re-isolation of Xenopus chromosomes was done according to Funabiki and Murray ((2000) Cell 102:411). When human chromosomes were used, the KCl concentration was lowered to 70 mM. Δ90 and isolated securin/separase (0.1 volumes) were added 20 minutes after addition of human chromosomes. After additional 20 minutes at 20° C., Ca^2+ (0.6 mM) was added. Chromosomes were re-isolated from extracts 50 minutes thereafter. Analysis by immunofluorescence microscopy was performed as described (Wood et al. (1997) Cell 91:357). The percentage of separated chromosomes was calculated according to the following equation: % separation=(number of single chromatids/2)/[(number of single chromatids/2)+number of unseparated chromosomes].
It was next determined whether the PM-2 mutant would override the inhibition not only of cohesin cleavage but also of sister chromatid separation in high-Δ90 extracts. Since the biochemical experiments utilized human separase, the existing assay was modified to examine the separation of human metaphase chromosomes in Xenopus extracts. […] In the presence of wild type separase (supplied as purified securin/separase complexes) and high concentrations of Δ90 (400 nm), only 2.7% of the chromosomes separated (FIG. 5A, row 2). […] In contrast, PM-2 (Ser 1126) led to maximal separation of sister chromatids (68%) under the same conditions (FIG. 5A, row 5). Similar results were obtained with PM-2/4 and PM-2^Asp; they caused 68% and 66% separation, respectively (FIG. 5A, rows 4 and 7). A Western blot for separase was performed to assure that similar amounts of the various separases had been used in the experiment (FIG. 5B).

separase = assay: Re-inhibition of pre-activated separase by recombinant securin (cohesin hSCC1 cleavage); type: biochemical, human; settings: equal amounts of separase
Description: FIGS. 7A-7C depict the independent inhibition of separase activity by phosphorylation of separase and by binding of securin. (A) depicts a Western blot (upper panel) and cohesin^hSCC1 cleavage activity using isolated chromosomes as substrate (lower panel). Lane 2: Consecutive treatment of separase with high-Δ90 extract twice. (B) depicts separase that had been pre-activated in low-Δ90 extract that was eluted and incubated with recombinant securin (lanes 2 and 3) or reference buffer (lane 1) for one hour on ice. Subsequently, its cleavage activity towards in vitro translated ^35S-cohesin^hSCC1 was tested (upper panel). The separase concentration in each reaction was 4 nM, as estimated by Coomassie staining. To compare wild type separase with PM-2/4 mutant separase in its ability to bind securin the same experiment was repeated with PM-2/4 (lower panel). Roughly equal separase concentrations in both cases were assured by comparative immunoblotting (see FIG. 4B, lanes 15 and 17). (C) depicts a model for the dual inhibition of separase in metaphase and its activation at anaphase onset. PPase denotes an unknown protein phosphatase that is proposed to act on phosphorylated separase.
To determine whether securin can inhibit separase independent of the phosphorylation state of separase, and whether separase that has already been activated and has therefore cleaved itself be re-inhibited by either of the two inhibitory mechanisms, active separase was generated by treating a securin/separase complex with a low-Δ90 extract (L; FIG. 7) to degrade securin and dephosphorylate separase. […] Active separase on beads was then incubated with either recombinant securin or a high-Δ90 extract and assayed for its ability to cleave cohesin^hSCC1. […]

cohesin^hSCC1 = assay: In vitro separase activity assay (self-cleavage and cohesin hSCC1 cleavage) after low- or high-Δ90 extract; type: biochemical, human; settings: for Separase self-cleavage and cohesin hSCC1 cleavage after low- versus high-Δ90 extract: low or high CDC2 activity extract
Source text: To address whether high CDC2 activity blocked the activity of separase, an in vitro separase activity assay was developed. Plasmids coding for human securin and tagged human separase were transfected into 293T cells as follows.
Human cohesin^hSCC1 was isolated from the a human fetal thymus cDNA library using the following primers: 5′-[…]-3′ (SEQ ID NO:8) and 5′-[…]-3′ (SEQ ID NO:9). Both separase and securin were subcloned into the multi-purpose expression vector pCS2 (various versions). The resulting plasmids were utilized for transfection into 293T cells and for in vitro expression in TNT™ reticulocyte lysate (Promega). For immunoprecipitation of separase, two types of N-terminal tags were fused to the amino terminus of separase, three HA tags (FIG. 2A) or two IgG binding domains of protein A followed by four TEV-protease cleavage sequences (ZZ-TEV4-tag; FIGS. 2B, 4B, 5, 6B to E, and 7). Both versions of separase gave essentially the same results. Site directed mutagenesis was performed using either the QuickChange kit (Stratagene) or the GeneEditor system (Promega). All mutations were confirmed by DNA sequencing of manipulated regions.
To obtain securin/separase complexes, 293T cells were cotransfected with separase and securin expression plasmids using a calcium phosphate based method and subsequently synchronized as described (Fang et al. (1998) Mol. Cell 2:163). Two days after transfection, the nocodazole-arrested cells were lysed in 20 mM Tris/HCl pH 7.7, 100 mM NaCl, 1 mM NaF, 20 mM β-glycerophosphate, 5 mM MgCl2, 0.1% Triton X100, 1 μM microcystin-LR. After ultra-centrifugation at 100,000 g, the supernatant was mixed with anti-HA agarose (3F10, Roche) or IgG-sepharose (Amersham), depending on the tag of separase. For a 10 cm dish of confluent, transfected cells (corresponding to roughly 100 μl cell pellet), 20 μl of beads were used. After rotation overnight at 4° C. the beads were washed twice with CSF-XB (Murray (1991) Methods Cell Biol. 36:581) and then incubated with various Xenopus egg extracts. To prepare low- or high-Δ90 extracts, CSF extracts were supplemented with various concentrations of Δ90. Fifteen minutes thereafter, Ca^2+ was added (0.6 mM) and the extracts were further incubated for 15 minutes before adding them to the securin/separase beads. After 1 hour, the beads were washed twice with CSF-XB, once with 30 mM Hepes/KOH pH 7.7, 30% glycerol, 25 mM NaF, 25 mM KCl, 5 mM MgCl2, 1.5 mM ATP, 1 mM EGTA, and eluted with HA peptide (1 mg/ml) or TEV-protease (2 mg/ml) in 20 to 50 μl. Two μl of separase were combined with 2 μl of in vitro translated ^35S-cohesin^hSCC1 and incubated for 1 hour at 37° C. Alternatively, 2 μl of isolated metaphase chromosomes (8.7 μg DNA per μl) were used as a substrate.
Each mutant was incubated in either low- (odd numbered lanes) or high-Δ90 extract (even numbered lanes) before analyzing separase self-cleavage by immuno-blot (top panels) and cohesin^hSCC1 cleavage by autoradiography (middle and lower panels).

separase Ser1126 = molecular target: T1, separase Ser1126 (Homo sapiens, UniProt Q14674); assay: Ser1126-specific in vitro kinase assays with LC-MS/MS; type: biochemical; settings: securin/separase from unsynchronized 293T cells, 1 mM ATP
T1 construct: Full-length human separase was PCR-amplified from a human fetal thymus cDNA library; made in house; host or cells: 293T cells (cotransfected, unsynchronized)
Source text: (A) depicts FACS and Western analyses of synchronized HeLaS3 cells undergoing mitosis. (B) depicts quantification of cell cycle distribution and phosphorylation status of separase at Ser1126 for the samples shown in (A). (C) depicts a nano-scale microcapillary LC-MS/MS analysis of native separase phosphorylation state. Shown are the selected reaction, extracted-ion chromatograms corresponding to the unphosphorylated (upper trace) and phosphorylated (bottom trace) Glu1115-Lys1130 native tryptic peptide (blue and green) and heavy internal standard (brown and red). Inset: Averaged selected reaction m/z window corresponding to the y10-ion fragment of light and heavy peptides. (D) depicts […] in vitro kinase assays. Shown is the phosphorylation status of Ser1126 in percent as determined by incubation of affinity-purified securin/separase with various pure kinases in the presence of ATP (1 mM) followed by LC-MS/MS analysis. […] Top panel: Mock treatment.
For kinase assays, the securin/separase complex was isolated from unsynchronized, transfected cells and eluted with TEV protease without prior incubation in Xenopus extracts. […] Reactions with polo and auroraA (a gift from E. A. Nigg) were carried out as described (Bischoff et al. (1998) EMBO J 17:3052; Descombes et al. (1998) EMBO J 17:1328). All kinase assays were done in the presence of 1 mM ATP.
As a substrate, overexpressed securin/separase purified from transfected, unsynchronized 293T cells was used.
Coomassie stained securin and separase bands were digested in-gel (Shevchenko et al. (1996) Anal. Chem. 68:850). Extracted peptides were separated by nano-scale microcapillary high performance liquid chromatography (HPLC) as described (Gygi et al. (1999) Mol. Cell Biol. 19:1720). Eluting peptides were ionized by electrospray ionization and analyzed by an LCQ-DECA ion trap mass spectrometer (ThermoFinnigan). Peptide ions reaching a certain threshold were automatically selected for sequence analysis by tandem mass spectrometry. Peptide sequence was determined by data-searching against the non redundant human protein database using the Sequest algorithm (Eng et al. (1994) J. Am. Soc. Mass Spectrom. 5:1579).

recombinant securin = test system: T2, recombinant securin
T2 sequence (O95997 2-202, species assumed, looked up): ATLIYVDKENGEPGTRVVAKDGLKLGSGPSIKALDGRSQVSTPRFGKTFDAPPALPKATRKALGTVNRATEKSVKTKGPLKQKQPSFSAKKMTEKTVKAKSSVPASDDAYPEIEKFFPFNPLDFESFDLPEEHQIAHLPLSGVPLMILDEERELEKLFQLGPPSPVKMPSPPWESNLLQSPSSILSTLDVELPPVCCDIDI

[2] = test system: sister chromatid separation and segregation in Xenopus egg extracts; assay: Anaphase and mitotic exit in CSF-arrested Xenopus egg extracts with sperm nuclei; settings: added 10 minutes before Ca2+

T1 sequence (Q14674 whole entry): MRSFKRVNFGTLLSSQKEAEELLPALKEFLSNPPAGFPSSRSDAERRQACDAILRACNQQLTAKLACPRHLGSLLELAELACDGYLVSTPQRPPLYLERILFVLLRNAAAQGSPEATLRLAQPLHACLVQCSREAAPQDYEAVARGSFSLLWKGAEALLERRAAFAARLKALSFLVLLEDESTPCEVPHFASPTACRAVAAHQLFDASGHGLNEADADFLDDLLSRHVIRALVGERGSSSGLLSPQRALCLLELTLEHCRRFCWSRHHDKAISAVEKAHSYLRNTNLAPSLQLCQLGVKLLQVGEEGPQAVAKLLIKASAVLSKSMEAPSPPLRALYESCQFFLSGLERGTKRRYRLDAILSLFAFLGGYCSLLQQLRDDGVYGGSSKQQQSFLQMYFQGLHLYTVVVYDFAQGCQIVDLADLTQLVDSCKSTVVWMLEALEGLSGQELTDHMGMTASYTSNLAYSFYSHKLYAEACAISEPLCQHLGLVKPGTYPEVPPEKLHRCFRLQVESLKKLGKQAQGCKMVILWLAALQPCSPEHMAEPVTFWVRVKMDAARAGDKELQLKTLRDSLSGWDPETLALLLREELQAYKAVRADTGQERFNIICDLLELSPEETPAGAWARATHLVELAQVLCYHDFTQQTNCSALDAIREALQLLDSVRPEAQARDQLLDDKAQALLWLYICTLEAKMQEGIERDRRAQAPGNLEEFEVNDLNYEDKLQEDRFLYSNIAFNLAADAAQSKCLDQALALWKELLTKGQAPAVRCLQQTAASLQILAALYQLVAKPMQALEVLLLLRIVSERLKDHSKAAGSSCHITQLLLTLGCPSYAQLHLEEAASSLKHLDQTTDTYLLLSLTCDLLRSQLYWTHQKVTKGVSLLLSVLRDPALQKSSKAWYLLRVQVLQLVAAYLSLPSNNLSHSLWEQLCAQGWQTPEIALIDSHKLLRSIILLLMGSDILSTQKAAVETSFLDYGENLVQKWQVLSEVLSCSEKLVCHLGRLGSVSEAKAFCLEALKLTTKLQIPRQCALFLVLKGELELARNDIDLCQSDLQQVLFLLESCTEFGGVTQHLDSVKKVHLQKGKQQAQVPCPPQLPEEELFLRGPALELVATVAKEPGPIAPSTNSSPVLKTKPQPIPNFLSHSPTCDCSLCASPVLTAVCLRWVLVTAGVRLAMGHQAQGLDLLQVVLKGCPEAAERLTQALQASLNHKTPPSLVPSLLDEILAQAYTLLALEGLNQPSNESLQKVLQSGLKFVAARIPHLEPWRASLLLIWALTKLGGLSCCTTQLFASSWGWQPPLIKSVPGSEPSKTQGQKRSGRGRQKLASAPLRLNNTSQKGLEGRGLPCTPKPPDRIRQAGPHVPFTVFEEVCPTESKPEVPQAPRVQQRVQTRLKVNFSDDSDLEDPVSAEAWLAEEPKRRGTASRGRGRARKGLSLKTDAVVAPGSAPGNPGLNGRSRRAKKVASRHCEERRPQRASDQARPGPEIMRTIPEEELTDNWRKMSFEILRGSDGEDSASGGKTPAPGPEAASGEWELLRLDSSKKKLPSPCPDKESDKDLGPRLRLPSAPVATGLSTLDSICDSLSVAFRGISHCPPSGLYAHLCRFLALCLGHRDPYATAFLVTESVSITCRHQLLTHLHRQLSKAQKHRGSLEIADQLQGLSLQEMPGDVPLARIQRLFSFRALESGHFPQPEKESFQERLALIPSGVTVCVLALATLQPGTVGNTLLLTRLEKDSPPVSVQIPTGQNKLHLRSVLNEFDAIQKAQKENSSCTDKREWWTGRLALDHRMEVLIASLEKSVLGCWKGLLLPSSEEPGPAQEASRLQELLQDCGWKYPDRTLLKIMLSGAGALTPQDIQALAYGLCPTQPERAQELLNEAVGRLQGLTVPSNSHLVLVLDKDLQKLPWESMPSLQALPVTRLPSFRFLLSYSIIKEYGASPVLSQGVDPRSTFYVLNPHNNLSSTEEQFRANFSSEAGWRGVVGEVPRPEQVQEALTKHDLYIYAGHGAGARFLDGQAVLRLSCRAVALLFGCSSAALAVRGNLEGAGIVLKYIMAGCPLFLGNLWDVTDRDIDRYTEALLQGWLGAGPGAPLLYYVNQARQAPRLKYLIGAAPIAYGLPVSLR
T1 sequence (O95997 whole entry partner): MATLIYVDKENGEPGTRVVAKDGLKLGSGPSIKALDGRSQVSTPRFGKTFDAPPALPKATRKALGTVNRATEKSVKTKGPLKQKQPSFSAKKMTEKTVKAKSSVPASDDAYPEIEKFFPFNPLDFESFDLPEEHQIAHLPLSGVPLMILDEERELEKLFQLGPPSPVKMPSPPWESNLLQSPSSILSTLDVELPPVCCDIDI

wild type separase: human separase protein (SEQ ID NO:3), tagged, purified as securin/separase complex from 293T cells
Separation of sister chromatids [1]: 2.7% | Inhibition of separase by securin, wild type versus mutant (separase): inhibited at the same concentration of securin | Separase self-cleavage and cohesin hSCC1 cleavage after low- versus high-Δ90 extract (cohesin^hSCC1): efficiently at low but not at high CDC2 activity

polo: pure kinase, a gift from E. A. Nigg
Phosphorylation of Ser1126 by kinase (separase Ser1126): not at all

auroraA: pure kinase, a gift from E. A. Nigg
Phosphorylation of Ser1126 by kinase (separase Ser1126): not at all

PM-4: single site separase phospho-mutant, site 4 (Thr1346) changed to alanine
Separation of sister chromatids [1]: 38% | Separase self-cleavage and cohesin hSCC1 cleavage after low- versus high-Δ90 extract (cohesin^hSCC1): inactivated by high CDC2 activity albeit less so than wild type separase | Separase activity relative to wild type after low-Δ90 extract (cohesin^hSCC1; low-Δ90 extract): higher than that of wild type separase

MAPK (ERK2): pure kinase from New England Biolabs
Phosphorylation of Ser1126 by kinase (separase Ser1126): efficiently phosphorylated

PM-2/4: separase phospho-mutant, sites 2 (Ser1126) and 4 (Thr1346) changed to alanine
Separation of sister chromatids [1]: 68% | Maximal degree of sister chromatid separation ([1]; low-Δ90 extract plus saturating level of PM-2/4, data not shown): about 70% | Inhibition of separase by securin, wild type versus mutant (separase): inhibited at the same concentration of securin | Separase self-cleavage and cohesin hSCC1 cleavage after low- versus high-Δ90 extract (cohesin^hSCC1): no longer inhibited | Separase activity relative to wild type after low-Δ90 extract (cohesin^hSCC1; low-Δ90 extract): higher than that of wild type separase

PM-2^Asp: separase with mutation of Ser1126 to aspartate
Separation of sister chromatids [1]: 66% | Separase self-cleavage and cohesin hSCC1 cleavage after low- versus high-Δ90 extract (cohesin^hSCC1): still largely resistant to inactivation

human separase phospho-mutant PM-2/4 (Ser1126 and Thr1346 changed to alanine), with N-terminal ZZ-TEV4-tag
cohesin^hSCC1 cleavage by pre-activated separase (recombinant securin): both were inhibited at the same concentration of securin

CC[C@H](CO)Nc1nc(NCc2ccccc2)c2ncn(C(C)C)c2n1 [roscovitine]
Rescue of anaphase (sister separation and segregation) blocked in high-Δ90 extract [2]: rescued both events with high efficiency

PM-2: single site separase phospho-mutant, site 2 (Ser1126) changed to alanine
Separation of sister chromatids [1]: 68% | Separase self-cleavage and cohesin hSCC1 cleavage after low- versus high-Δ90 extract (cohesin^hSCC1): still largely resistant to inhibition | Separase activity relative to wild type after low-Δ90 extract (cohesin^hSCC1; low-Δ90 extract): higher than that of wild type separase

catalytically inactive separase: mutant separase in which the catalytic cysteine residue was replaced by a serine
Separation of sister chromatids [1]: 0.4% | Separase self-cleavage (cohesin^hSCC1; low-Δ90 extract): not cleaved

CaMKII: calmodulin-dependent kinase II, from New England Biolabs
Phosphorylation of Ser1126 by kinase (separase Ser1126): not at all
